The text below walks through data of patent US20120225062A1 (priority 2011, published 2012).

In assay [1] the test system is KMS11 (human myeloma cell line). Kind of assay: Cell Proliferation Assay (CellTiter-Glo, 3 days). The class given is cell-based. The conditions noted are these: KMS-11, 72 h, KMS11-luc cells. The procedure, abridged:
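KMS11 myeloma cells, 2000 per well in IMDM with 10% FBS, exposed to compound for 3 days at 37° C. Viability read by CellTiter-Glo luminescence; EC50 derived.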

Another assay concerns the target Pim 1 (Homo sapiens, UniProt P11309). As to the kind of experiment: Pim 1 AlphaScreen assay (high ATP).
The next assay deals with Pim 2 (Homo sapiens, UniProt Q9P1W9). Kind of assay: Pim 2 AlphaScreen assay (high ATP).
The next assay deals with Pim 3 (Homo sapiens, UniProt Q86V86). As to the kind of experiment: Pim 3 AlphaScreen assay (high ATP).

Pim 1, sequence (P11309 whole entry): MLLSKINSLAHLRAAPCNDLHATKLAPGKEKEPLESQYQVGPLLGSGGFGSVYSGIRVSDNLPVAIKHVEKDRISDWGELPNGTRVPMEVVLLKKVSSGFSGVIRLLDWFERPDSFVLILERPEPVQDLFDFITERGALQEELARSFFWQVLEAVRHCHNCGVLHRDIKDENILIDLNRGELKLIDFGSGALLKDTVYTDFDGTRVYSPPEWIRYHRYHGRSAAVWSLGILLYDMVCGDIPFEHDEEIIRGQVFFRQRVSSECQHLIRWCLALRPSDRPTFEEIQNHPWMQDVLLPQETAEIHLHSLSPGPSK
Pim 2, sequence (Q9P1W9 whole entry): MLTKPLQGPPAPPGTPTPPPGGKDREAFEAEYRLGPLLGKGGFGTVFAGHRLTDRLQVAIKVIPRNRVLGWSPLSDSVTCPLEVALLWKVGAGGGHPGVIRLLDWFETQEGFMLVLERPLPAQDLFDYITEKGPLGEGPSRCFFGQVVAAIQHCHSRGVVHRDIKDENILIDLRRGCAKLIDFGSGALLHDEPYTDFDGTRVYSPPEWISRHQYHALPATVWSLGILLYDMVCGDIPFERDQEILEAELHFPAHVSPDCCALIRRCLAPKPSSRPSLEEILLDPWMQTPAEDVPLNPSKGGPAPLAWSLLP

Take `CC(C)Oc1cc(F)c(-c2nc(C(=O)Nc3cnccc3[C@H]3C[C@@H](N)[C@H](O)[C@@H](C)C3)ccc2F)c(F)c1` [Example 62, N-(4-((1R,3R,4R,5S)-3-amino-4-hydroxy-5-methylcyclohexyl)pyridin-3-yl)-6-(2,6-difluoro-4-isopropoxyphenyl)-5-fluoropicolinamide]: the EC50 in assay [1] came out at 52 nM. The IC50 was 0.01 nM against Pim 1, 1.03 nM on Pim 2 and 0.35 nM against Pim 3.
For `C[C@@H]1C[C@H](N)C[C@H](c2ccncc2NC(=O)c2ccc(F)c(-c3c(F)cc(OC4CCOCC4)cc3F)n2)C1` [Example 63, N-(4-((1R,3S,5S)-3-amino-5-methylcyclohexyl)pyridin-3-yl)-6-(2,6-difluoro-4-((tetrahydro-2H-pyran-4-yl)oxy)phenyl)-5-fluoropicolinamide] the same measures were 76 nM, 0.01 nM, 2.04 nM and 0.32 nM.
The matching figures for `C[C@@H]1C[C@H](N)C[C@H](c2ccncc2NC(=O)c2ccc(F)c(-c3c(F)cc(OCC4CC4)cc3F)n2)C1` [Example 64, N-(4-((1R,3S,5S)-3-amino-5-methylcyclohexyl)pyridin-3-yl)-6-(4-(cyclopropylmethoxy)-2,6-difluorophenyl)-5-fluoropicolinamide]: 37 nM, 0.01 nM, 1.96 nM and 0.51 nM.
For `C[C@@H]1C[C@H](N)C[C@H](c2ccncc2NC(=O)c2ccc(F)c(-c3c(F)cc(OC(F)F)cc3F)n2)C1` [Example 65, N-(4-((1R,3S,5S)-3-amino-5-methylcyclohexyl)pyridin-3-yl)-6-(4-(difluoromethoxy)-2,6-difluorophenyl)-5-fluoropicolinamide] the same measures were 83 nM, 0.01 nM, 3.84 nM and 1.01 nM.
In assay [1], `COCCc1cc(F)c(-c2nc(C(=O)Nc3cnccc3[C@@H]3C[C@H](C)C[C@H](N)C3)ccc2F)c(F)c1` [Example 67, N-(4-((1R,3S,5S)-3-amino-5-methylcyclohexyl)pyridin-3-yl)-6-(2,6-difluoro-4-(2-methoxyethyl)phenyl)-5-fiuoropicolinamide] yielded an EC50 of 23 nM. In addition, the IC50 against Pim 1 turned out to be 0.02 nM; against Pim 2, 1.69 nM; at Pim 3 it was 0.94 nM.
The matching figures for `C[C@@H]1C[C@H](N)C[C@H](c2ccncc2NC(=O)c2ccc(F)c(-c3c(F)cc(C4COC4)cc3F)n2)C1` [Example 68, N-(4-((1R,3S,5S)-3-amino-5-methylcyclohexyl)pyridin-3-yl)-6-(2,6-difluoro-4-(oxetan-3-yl)phenyl)-5-fluoropicolinamide]: 25 nM, 0.01 nM, 1.6 nM and 1.13 nM.
The matching figures for `CC(C)Oc1cc(F)c(-c2nc(C(=O)Nc3cnccc3[C@@H]3C[C@H](C)C[C@H](N)C3)ccc2F)c(F)c1` [Example 75, N-(4-((1R,3S,5S)-3-amino-5-methylcyclohexyl)pyridin-3-yl)-6-(2,6-difluoro-4-isopropoxyphenyl)-5-fluoropicolinamide]: 44 nM, 0.02 nM, 1.55 nM and 0.62 nM.
For `C[C@H]1CN(c2ccncc2NC(=O)c2ccc(F)c(-c3c(F)cc(C4(O)CCC4)cc3F)n2)C[C@@H](N)[C@@H]1O` [Example 76, N-(4-((3R,4R,5S)-3-amino-4-hydroxy-5-methylpiperidin-1-yl)pyridin-3-yl)-6-(2,6-difluoro-4-(1-hydroxycyclobutyl)phenyl)-5-fluoropicolinamide] the same measures were 9 nM, 0.01 nM, 0.71 nM and 0.22 nM.
Molecule `C[C@@H]1C[C@H](N)C[C@H](c2ccncc2NC(=O)c2ccc(F)c(-c3c(F)cc(O[C@@H]4CCCOC4)cc3F)n2)C1` [Example 77, N-(4-((1R,3S,5S)-3-amino-5-methylcyclohexyl)pyridin-3-yl)-6-(2,6-difluoro-4-((R)-tetrahydro-2H-pyran-3-yloxy)phenyl)-5-fluoropicolinamide] yielded an EC50 in assay [1] of 48 nM. Moreover, the IC50 on Pim 1 turned out to be 0.02 nM; on Pim 2, 1.84 nM; on Pim 3, 1.12 nM.
The matching figures for `C[C@H]1C[C@@H](c2ccncc2NC(=O)c2ccc(F)c(-c3c(F)cc(O[C@@H]4CCCOC4)cc3F)n2)C[C@@H](N)[C@@H]1O` [Example 78, N-(4-((1R,3R,4R,5S)-3-amino-4-hydroxy-5-methylcyclohexyl)pyridin-3-yl)-6-(2,6-difluoro-4-((R)-tetrahydro-2H-pyran-3-yloxy)phenyl)-5-fluoropicolinamide]: 22 nM, 0.02 nM, 1.23 nM and 0.56 nM.
Turning to `C[C@@H]1C[C@H](N)C[C@H](c2ccncc2NC(=O)c2ccc(F)c(-c3c(F)cc(O[C@H]4CCCOC4)cc3F)n2)C1` [Example 79, N-(4-((1R,3S,5S)-3-amino-5-methylcyclohexyl)pyridin-3-yl)-6-(2,6-difluoro-4-((S)-tetrahydro-2H-pyran-3-yloxy)phenyl)-5-fluoropicolinamide], it took 12 nM to reach a half-maximal effect in assay [1] (EC50). The half-inhibitory concentration (IC50) against Pim 1 amounted to 0.01 nM; against Pim 2, 1.08 nM; on Pim 3, 0.24 nM.
The matching figures for `C[C@H]1C[C@@H](c2ccncc2NC(=O)c2ccc(F)c(-c3c(F)cc(O[C@H]4CCCOC4)cc3F)n2)C[C@@H](N)[C@@H]1O` [Example 80, N-(4-((1R,3R,4R,5S)-3-amino-4-hydroxy-5-methylcyclohexyl)pyridin-3-yl)-6-(2,6-difluoro-4-((S)-tetrahydro-2H-pyran-3-yloxy)phenyl)-5-fluoropicolinamide]: 24 nM, 0.02 nM, 2.16 nM and 0.58 nM.
For `CCOCc1cc(F)c(-c2nc(C(=O)Nc3cnccc3[C@@H]3C[C@H](C)C[C@H](N)C3)ccc2F)c(F)c1` [Example 81, N-(4-((1R,3S,5S)-3-amino-5-methylcyclohexyl)pyridin-3-yl)-6-(4-(ethoxymethyl)-2,6-difluorophenyl)-5-fluoropicolinamide] the same measures were 14 nM, 0.01 nM, 0.42 nM and 0.21 nM.
Take `C[C@@H]1C[C@H](N)C[C@H](c2ccncc2NC(=O)c2ccc(F)c(-c3c(F)cc(C4CCOCC4)cc3F)n2)C1` [Example 82, N-(4-((1R,3S,5S)-3-amino-5-methylcyclohexyl)pyridin-3-yl)-6-(2,6-difluoro-4-(tetrahydro-2H-pyran-4-yl)phenyl)-5-fluoropicolinamide]: the midpoint of the response in assay [1], the EC50, lay at 30 nM. Besides, the IC50 worked out at 0.01 nM against Pim 1, 1.05 nM against Pim 2 and 0.52 nM against Pim 3.
The matching figures for `CCOCc1cc(F)c(-c2nc(C(=O)Nc3cnccc3[C@H]3C[C@@H](N)[C@H](O)[C@@H](C)C3)ccc2F)c(F)c1` [Example 83, N-(4-((1R,3R,4R,5S)-3-amino-4-hydroxy-5-methylcyclohexyl)pyridin-3-yl)-6-(4-(ethoxymethyl)-2,6-difluorophenyl)-5-fluoropicolinamide]: 166 nM, 0.04 nM, 2.43 nM and 1.33 nM.
